Values quoted from earlier work, collected in US20040097717A1, “Control of aerial branching” (priority 2000, published 2004).

Columns and labels:
[1] = test system: Phaseolus vulgaris; conditions: decapitated Phaseolus vulgaris, IAA application (Knox and Wareing, 1984)
[2] = test system: lateral buds; conditions: exogenous application to lateral buds (Tames et al., 1979)

O=C(O)Cc1c[nH]c2ccccc12 [IAA]
lateral bud elongation / decrease in ABA level after decapitation [1]: reversed

CC1=CC(=O)CC(C)(C)[C@@]1(O)/C=C/C(C)=C\C(=O)O [ABA, abscisic acid]
lateral bud elongation [2]: inhibited elongation
